IC50 data for 19 compounds are collected here from patent US20260125379A1, “PRODRUG OF JAK KINASE INHIBITOR” (E-nitiate Biopharmaceuticals (Hangzhou) Co., Ltd, priority 2022, published 2026).

The target of one test is JAK2 (Homo sapiens, UniProt O60674). The test is described as follows: JAK2 kinase inhibition assay (ULight-JAK-1 substrate, Eu-labeled anti-phosphotyrosine antibody). The format is biochemical. The note with it: JAK2 0.125 nM, substrate 50 nM, ATP 10 μM, 1 hour at room temperature. The method, then: (§1) Example A: Activity Detection of JAK Kinase Small Molecule Inhibitors
Sequence of JAK2 (O60674 whole entry, species assumed): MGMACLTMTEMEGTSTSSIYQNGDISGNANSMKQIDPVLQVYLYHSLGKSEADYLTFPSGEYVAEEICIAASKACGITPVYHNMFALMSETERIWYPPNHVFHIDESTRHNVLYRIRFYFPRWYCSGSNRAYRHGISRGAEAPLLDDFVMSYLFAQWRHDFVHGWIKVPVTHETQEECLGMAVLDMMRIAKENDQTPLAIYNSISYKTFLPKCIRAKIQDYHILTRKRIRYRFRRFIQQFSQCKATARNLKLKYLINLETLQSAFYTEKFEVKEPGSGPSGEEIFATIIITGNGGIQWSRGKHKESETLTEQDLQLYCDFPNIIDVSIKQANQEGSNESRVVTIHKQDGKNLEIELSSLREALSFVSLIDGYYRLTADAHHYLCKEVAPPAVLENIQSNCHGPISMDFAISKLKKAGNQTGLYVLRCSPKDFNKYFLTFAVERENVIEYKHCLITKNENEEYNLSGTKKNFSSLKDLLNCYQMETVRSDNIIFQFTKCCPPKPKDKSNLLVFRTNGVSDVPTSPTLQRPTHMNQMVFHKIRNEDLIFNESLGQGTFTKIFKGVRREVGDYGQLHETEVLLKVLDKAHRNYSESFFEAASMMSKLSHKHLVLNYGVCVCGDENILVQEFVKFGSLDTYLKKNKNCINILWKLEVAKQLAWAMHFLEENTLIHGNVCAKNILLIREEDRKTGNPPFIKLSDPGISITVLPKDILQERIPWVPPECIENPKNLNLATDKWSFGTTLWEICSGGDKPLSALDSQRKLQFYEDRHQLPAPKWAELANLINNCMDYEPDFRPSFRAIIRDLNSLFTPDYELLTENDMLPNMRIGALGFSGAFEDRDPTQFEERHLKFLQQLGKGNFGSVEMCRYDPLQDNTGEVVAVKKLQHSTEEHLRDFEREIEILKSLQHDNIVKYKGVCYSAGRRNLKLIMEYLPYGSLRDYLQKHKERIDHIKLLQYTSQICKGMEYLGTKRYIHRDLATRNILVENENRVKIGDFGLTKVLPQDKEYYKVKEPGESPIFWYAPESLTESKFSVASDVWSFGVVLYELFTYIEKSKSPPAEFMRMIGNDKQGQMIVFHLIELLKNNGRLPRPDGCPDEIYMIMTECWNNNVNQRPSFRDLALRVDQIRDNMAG
(§2) Kinase reaction buffer was prepared with the following components: 50 mM HEPES, pH 7.5, 1 mM EGTA, 10 mM MgCl2, 2 mM DTT, 0.01% Tween20.
(§3) Detection buffer was prepared by diluting 10× detection buffer to IX with deionized water in a ratio of 9:1.
(§4) JAK kinase was diluted with kinase reaction buffer to 4× final concentration (JAK1: 40 nM, JAK2: 0.5 nM).
(§5) ULight™-JAK-1 (Tyr1023) substrate was diluted with kinase reaction buffer to 200 nM (final concentration: 50 nM).
(§6) ATP was diluted with kinase reaction buffer to 4× final concentration (JAK1: 160 μM, JAK2: 40 μM).
(§7) Compound to be tested was dissolved with DMSO to obtain a 10 mM storage solution, which was diluted to desired concentrations by a 3-fold gradient; for each compound 10 concentration points were set, and the final concentration of the compound to be tested ranges from 10 μM to 0.5 nM.
(§8) EDTA was dissolved with 1× detection buffer to 40 mM (EDTA final concentration: 10 mM).
(§9) Eu-labeled detection antibody (anti-phosphotyrosine (PT66)) was diluted with 1× detection buffer to 8 nM (final antibody concentration: 2 nM).
(§10) (1) To a 384-well plate, 2.5 μL 4× kinase solution and 2.5 μL 4× test compound solution with different concentrations that have been diluted were added successively, each concentration was set in duplicate, and an enzyme solution blank control and a negative control (DMSO group) were also set.
(§11) (2) The 384-well plate was shaken to mix enzyme and compound well, and then centrifuged at 1000 rpm for 1 minute, and incubated at room temperature for 60 minutes.
(§12) (3) 2.5 μL 4× substrate solution was added to the 384-well plate and centrifuged at 1000 rpm for 1 minute.
(§13) (4) 2.5 μL 4× ATP solution was added to the 384-well plate and centrifuged at 1000 rpm for 1 minute, and then enzyme reaction was initiated.
(§14) (5) For JAK1 the reaction was carried out at room temperature for 2 hours, and for JAK2 the reaction was carried out at room temperature for 1 hour.
For the JAK2 reaction, the final concentrations of component are as follows: JAK2: 0.125 nM, substrate: 50 nM, ATP: 10 μM; and the final concentration of the tested compound ranges from 10 μM to 0.5 nM.
(§15) (7) After the enzyme reaction was completed, 5 μL 4× enzyme reaction termination solution was added to each well of the 384-well plate, and then centrifuged at 1000 rpm for 1 minute and incubated at room temperature for 5 minutes.
(§16) (8) 5 μL 4× detection antibody solution (the final concentration of detection antibody is 2 nM) was added to each well of the 384-well plate, and then centrifuged at 1000 rpm for 1 minute and incubated at room temperature for 1 hour.
(§17) (9) At the antibody incubation was completed, signal value of each well was measured on a Envision plate reader.
(§18) (1) The percentage inhibition rate corresponding to each concentration of the tested compound was calculated on the basis that the blank control of enzyme solution corresponds to 100% and the negative control (DMSO group) corresponds to 0%.
(§19) (2) A nonlinear regression analysis of the logarithm of the concentration of the detected compound and the corresponding percentage inhibition rate was performed in GraphPad Prism software to obtain the half-inhibiting concentration (IC50) of the tested compound.

For the next test, the target named is JAK1 (Homo sapiens, UniProt P23458). The test is described as follows: JAK1 kinase inhibition assay (ULight-JAK-1 substrate, Eu-labeled anti-phosphotyrosine antibody). The format is biochemical. The following applies: JAK1 10 nM, substrate 50 nM, ATP 40 μM, 2 hours at room temperature. Here is the method:
as §1, §2, §3, §4, §5, §6, §7, §8, §9, §10, §11, §12, §13, §14
(6) For the JAK1 reaction, the final concentrations of components are as follows: JAK1: 10 nM, substrate: 50 nM, ATP: 40 μM; and the final concentration of the tested compounds ranges from 10μ M to 0.5 nM.
as §15, §16, §17, §18, §19

Structures can show the parent of a compound that is named as a salt.

Sequence of JAK1 (P23458 whole entry, species assumed): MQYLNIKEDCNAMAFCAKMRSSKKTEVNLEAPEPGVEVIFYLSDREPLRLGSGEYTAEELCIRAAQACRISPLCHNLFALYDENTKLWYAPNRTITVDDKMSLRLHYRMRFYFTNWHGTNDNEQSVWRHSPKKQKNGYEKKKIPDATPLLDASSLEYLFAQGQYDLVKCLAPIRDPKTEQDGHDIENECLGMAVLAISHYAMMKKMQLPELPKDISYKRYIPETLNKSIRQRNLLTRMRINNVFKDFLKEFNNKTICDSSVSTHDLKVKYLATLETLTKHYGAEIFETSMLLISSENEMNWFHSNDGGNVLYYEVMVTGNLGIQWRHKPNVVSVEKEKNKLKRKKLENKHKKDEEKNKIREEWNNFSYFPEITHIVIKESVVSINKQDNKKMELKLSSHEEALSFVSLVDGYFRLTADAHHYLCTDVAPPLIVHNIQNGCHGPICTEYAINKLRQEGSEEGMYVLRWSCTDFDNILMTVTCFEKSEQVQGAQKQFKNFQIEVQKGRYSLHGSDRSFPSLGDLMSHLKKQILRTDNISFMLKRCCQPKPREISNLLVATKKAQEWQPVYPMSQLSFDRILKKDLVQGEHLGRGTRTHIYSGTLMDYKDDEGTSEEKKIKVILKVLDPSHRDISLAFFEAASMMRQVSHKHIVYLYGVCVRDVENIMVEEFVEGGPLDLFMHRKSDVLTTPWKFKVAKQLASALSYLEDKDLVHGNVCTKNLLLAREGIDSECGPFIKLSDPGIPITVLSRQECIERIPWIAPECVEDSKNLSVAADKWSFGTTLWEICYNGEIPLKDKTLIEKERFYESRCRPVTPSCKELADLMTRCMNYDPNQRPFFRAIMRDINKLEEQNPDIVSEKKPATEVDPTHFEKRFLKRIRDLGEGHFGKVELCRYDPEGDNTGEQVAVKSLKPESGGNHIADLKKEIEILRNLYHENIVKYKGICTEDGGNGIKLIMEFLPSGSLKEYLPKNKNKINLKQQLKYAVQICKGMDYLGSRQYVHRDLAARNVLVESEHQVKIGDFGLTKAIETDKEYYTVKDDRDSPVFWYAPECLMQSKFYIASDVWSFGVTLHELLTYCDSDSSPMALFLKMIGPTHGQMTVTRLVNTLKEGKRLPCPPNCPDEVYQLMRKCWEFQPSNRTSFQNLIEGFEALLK

Consider `N#CC[C@H]1CC[C@H](n2c(/N=N/c3ccc(O)c(C(=O)NCCS(=O)(=O)O)c3)nc3cnc4[nH]ccc4c32)CC1` [Compound B12, 2-(5-((E)-(1-((1R,4R)-4-(cyanomethyl)cyclohexyl)-1,6-dihydroimidazo[4,5-d]pyrrolo[2,3-b]pyridin-2-yl)diazenyl)-2-hydroxybenzamido) ethan-1-sulfonic acid], for which the results for the IC50 on JAK2 and at JAK1 were 0.47 nM and 1.02 nM, respectively.

As to `N#CC[C@H]1CC[C@H](n2c(/N=N/c3ccc(O)c(C(=O)N[C@H](CCCCN)C(=O)O)c3)nc3cnc4[nH]ccc4c32)CC1` [Compound B9, (5-((E)-(1-((1R,4R)-4-(cyanomethyl)cyclohexyl)-1,6-dihydroimidazo[4,5-d]pyrrolo[2,3-b]pyridin-2-yl)diazenyl)-2-hydroxybenzoyl)-D-lysine], the results for the IC50 on JAK2 and at JAK1 were 6.62 nM and 2.52 nM, respectively.

`CSCC1(C)CCN(n2c(CO[N+](=O)[O-])nc3cnc4[nH]ccc4c32)CC1` [Compound A11, (1-(4-Methyl-4-((methylthio)methyl)piperidin-1-yl)-1,6-dihydroimidazo[4,5-d]pyrrolo[2,3-b]pyridin-2-yl)methyl nitrate]: the IC50 turned out to be 4.19 nM against JAK2 and 5.62 nM on JAK1.

Take `N#CC[C@H]1CC[C@H](n2c(/N=N/c3ccc(O)c(C(=O)N[C@H](CC(=O)O)C(=O)O)c3)nc3cnc4[nH]ccc4c32)CC1` [Compound B8, (5-((E)-(1-((1R,4R)-4-(cyanomethyl)cyclohexyl)-1,6-dihydroimidazo[4,5-d]pyrrolo[2,3-b]pyridin-2-yl)diazenyl)-2-hydroxybenzoyl)-D-aspartic acid]: the IC50 was determined as 4.26 nM at JAK2 and 1.75 nM on JAK1.

As for `Nc1nc2cnc3[nH]ccc3c2n1N1CCCCC1` [Compound B1, 1-(Piperidin-1-yl)-1,6-dihydroimidazo[4,5-d]pyrrolo[2,3-b]pyridin-2-amine], the results for the IC50 against JAK2 and at JAK1 were 38.7 nM and 2.15 nM, respectively.

In the case of `CC(C)[C@@H](N)C(=O)O[C@H](C)c1nc2cnc3[nH]ccc3c2n1N1CCC(CC#N)CC1` [Compound A8, (R)-1-(1-(4-(cyanomethyl)piperidin-1-yl)-1,6-dihydroimidazo[4,5-d]pyrrolo[2,3-b]pyridin-2-yl)ethyl D-valinate], the IC50 at JAK2 is 72 nM; on JAK1, 5.86 nM.

Turning to `COC(=O)/C=C/C(=O)OCO[C@H](C)c1nc2cnc3[nH]ccc3c2n1N1CCC(CC#N)CC1` [Compound A10, (R)-(1-(1-(4-(cyanomethyl)piperidin-1-yl)-1,6-dihydroimidazo[4,5-d]pyrrolo[2,3-b]pyridin-2-yl)ethoxy)methyl monomethyl fumarate], the IC50 came out at 21.1 nM against JAK2 and 96.7 nM against JAK1.

As for `C[C@@H](OC(=O)CCCCO[N+](=O)[O-])c1nc2cnc3[nH]ccc3c2n1N1CCC(CC#N)CC1` [Compound A6, (R)-1-(1-(4-(cyanomethyl)piperidin-1-yl)-1,6-dihydroimidazo[4,5-d]pyrrolo[2,3-b]pyridin-2-yl)ethyl 5-(nitrooxy)valerate], the IC50 was 40.3 nM against JAK2 and 31.3 nM against JAK1.

As for `CSCC1(C)CCN(n2c(CCO[N+](=O)[O-])nc3cnc4[nH]ccc4c32)CC1` [Compound A12, 2-(1-(4-Methyl-4-((methylthio)methyl)piperidin-1-yl)-1,6-dihydroimidazo[4,5-d]pyrrolo[2,3-b]pyridin-2-yl)ethyl nitrate], the IC50 on JAK2 worked out at 37.9 nM; on JAK1 it was 38.9 nM.

`N#CC[C@H]1CC[C@H](n2c(/N=N/c3ccc(O)c(C(=O)N[C@H](CCCN=C(N)N)C(=O)O)c3)nc3cnc4[nH]ccc4c32)CC1` [Compound B11, (R)-2-(5-((E)-(1-((1R,4R)-4-(cyanomethyl)cyclohexyl)-1,6-dihydroimidazo[4,5-d]pyrrolo[2,3-b]pyridin-2-yl)diazenyl)-2-hydroxybenzamido)-5-((diaminomethylene)amino)valeric acid]: the IC50 against JAK2 worked out at 3.38 nM; on JAK1, 1.6 nM.

Take `N#CCC1CCN(n2c(/N=N/c3ccc(O)c(C(=O)O)c3)nc3cnc4[nH]ccc4c32)CC1` [Compound B7, (E)-5-((1-(4-cyanomethylpiperidin-1-yl)-1,6-dihydroimidazo[4,5-d]pyrrolo[2,3-b]pyridin-2-yl)diazenyl)-2-hydroxybenzoic acid]: the IC50 on JAK2 was 0.27 nM; at JAK1, 1 nM.

In the case of `CC(=O)O[C@H](C)c1nc2cnc3[nH]ccc3c2n1N1CCC(CC#N)CC1` [Compound A5, (R)-1-(1-(4-(cyanomethyl)piperidin-1-yl)-1,6-dihydroimidazo[4,5-d]pyrrolo[2,3-b]pyridin-2-yl)ethyl acetate], the IC50 against JAK2 was found to be 4.04 nM; on JAK1, 1.83 nM.

`N#CCS(=O)(=O)NCC1CCN(n2c(N)nc3cnc4[nH]ccc4c32)CC1` [Compound B2, N-((1-(2-aminoimidazo[4,5-d]pyrrolo[2,3-b]pyridin-1(6H)-yl)-piperidin-4-yl)methyl)-1-cyano methanesulfonamide]: the IC50 came out at 0.1 nM against JAK2 and 0.045 nM on JAK1.

On to `C[C@@H](OC(=O)Nc1ccccc1/N=N/c1ccc(O)c(C(=O)O)c1)c1nc2cnc3[nH]ccc3c2n1N1CCC(CC#N)CC1` [Compound A4], for which the IC50 was 100 nM against JAK2 and 105 nM against JAK1.

`C[C@@H](OC(=O)CN(C)C)c1nc2cnc3[nH]ccc3c2n1N1CCC(CC#N)CC1` [Compound A7, (R)-1-(1-(4-(cyanomethyl)piperidin-1-yl)-1,6-dihydroimidazo[4,5-d]pyrrolo[2,3-b]pyridin-2-yl)ethyl dimethylglycinate]: the IC50 against JAK2 was determined as 57.8 nM; on JAK1 it was 3.85 nM.

Take `N#CC[C@H]1CC[C@H](n2c(N)nc3cnc4ccoc4c32)CC1` [Compound B5, 2-((1R,4R)-4-(2-amino-1H-furo[3,2-b]imidazo[4,5-d]pyridin-1-yl)cyclohexyl)acetonitrile]: the IC50 at JAK2 stood at 7.15 nM; against JAK1, 1.33 nM.

Consider `CC(C)[C@H](N)C(=O)O[C@H](C)c1nc2cnc3[nH]ccc3c2n1N1CCC(CC#N)CC1` [Compound A9, (R)-1-(1-(4-cyanomethylpiperidin-1-yl)-1,6-dihydroimidazo[4,5-d]pyrrolo[2,3-b]pyridin-2-yl)ethyl L-valinate], for which the IC50 against JAK2 stood at 56.4 nM; against JAK1, 3.05 nM.

For `N#CC[C@H]1CC[C@H](n2c(/N=N/c3ccc(O)c(C(=O)N[C@H](CCC(=O)O)C(=O)O)c3)nc3cnc4[nH]ccc4c32)CC1` [Compound B10, (5-((E)-(1-((1R,4R)-4-(cyanomethyl)cyclohexyl)-1,6-dihydroimidazo[4,5-d]pyrrolo[2,3-b]pyridin-2-yl)diazenyl)-2-hydroxybenzoyl)-D-glutamic acid], the IC50 on JAK2 turned out to be 0.28 nM; at JAK1, 1.34 nM.

For `N#CCC1CCN(n2c(N)nc3cnc4ccsc4c32)CC1` [Compound B4, 2-(1-(2-amino-1H-imidazo[4,5-d]thieno[3,2-b]pyridin-1-yl)piperidin-4-yl)acetonitrile], the IC50 against JAK2 was 1.74 nM; at JAK1 it was 0.47 nM.
